Literature values, collected in patent US4794170A (priority 1984, dated 1988).

Key:
[1] = system: virus B; settings: chronical hepatitis induced by virus B
[2] = system: hepatocytes; settings: mouse

Nc1ncnc2c1ncn2[C@@H]1O[C@H](CO)[C@@H](O)[C@@H]1O [ara-A, adenine-9-beta-D-arabinoside]
virus replication [1]: inhibit the virus replication

Nc1ncnc2c1ncn2[C@@H]1O[C@H](COP(=O)(O)O)[C@@H](O)[C@@H]1O [ara-AMP, adenine-9-beta-D-arabinofuranoside 5'monophosphate]
virus replication [1]: inhibit the virus replication

ara-A-glut-AF: ara-A glutarate bonded to the asialofetuine (AF) through its hydroxysuccinimidic ester
hepatic targeting of ara-A [2]: pharmacologically active in producing in the mouse a hepatic targeting of ara-A
